Literature values, collected in paper PMC12281572.
Where “and” joins values, the source holds several entries; their conditions need not be identical. Equal values may be shown once.

Experiment: FTIR, 4-fluorophenol as donor (the pK_BHX database, per the paper)
Conditions: CCl4; 25 C

Structure (SMILES)	pK_BHX (log10 Kf of the 1:1 H-bond complex with 4-fluorophenol, by FTIR)
CC(=O)c1cccnc1	1.39 log units and 0.9 log units
Cc1cc(C(C)(C)C)nc(C(C)(C)C)c1	-0.45 log units
CC(=O)C12CC3CC(CC(C3)C1)C2	1.3 log units
NCCCCN	2.21 log units
c1ccc2c(c1)CCCN2	0.7 log units
N#Cc1cccc(C(F)(F)F)c1	0.53 log units
CCCCS(=O)CCCC	2.65 log units
CC(=O)N(C1CCCCC1)C1CCCCC1	2.41 log units
c1cc(N2CCCCC2)ccn1	2.68 log units
CCCN=CN(C)C	2.59 log units
c1ccc(N2CCCCC2)cc1	0.68 log units
CCN(CC)C(=O)SC	1.56 log units
O=S1(=O)CCCC1	1.17 log units
Cc1ccc2c(c1)CN1CN2Cc2cc(C)ccc21	-0.26 log units
COc1ccccc1C=O	1.11 log units
CN(C)c1ccc(Br)cc1	0.17 log units
CS(=O)c1ccc([N+](=O)[O-])cc1 (stereo not shown)	1.58 log units
CN1CCCCC1=O	2.6 log units
C#CC(=O)OCC	0.63 log units
CN1CCc2ccccc2C1	1.8 log units
CCSCC	0.25 log units
CN(C)C=NC#N	2.09 log units
CCc1ccc(C(C)=O)cc1	1.25 log units

Structure (SMILES)	pK_BHX (log10 Kf of the 1:1 H-bond complex with 4-fluorophenol, by FTIR)
Cc1ccncc1C	2.24 log units
CCOC(=O)N(C)C	1.83 log units
COC(=O)N(C)C	1.8 log units
CC(=Nc1ccc(Br)cc1)N(C)c1ccc(Br)cc1	1.19 log units
CC(C)=C(C)C	-0.85 log units
NCc1cccc(C(F)(F)F)c1	1.43 log units
CN(C)C=NN(C)C	2.43 log units
Clc1ccncc1	1.54 log units
CC(=NC(=S)SCc1ccccc1)N(C)C	1.49 log units
CC(=O)N(C)c1ccccc1	2.19 log units
Cn1ccccc1=O	2.5 log units
COC(=O)c1ccccc1OC	1.49 log units
O=C1CCCCCCC1	1.45 log units
CCC(C)=O	1.22 log units
CCOCCOCC	1.09 log units
CCOC(=O)OCC	0.88 log units
CN1C(=O)CCC1=O	1.06 log units
CCOC(=O)c1ccccc1	0.94 log units
c1cocn1	1.3 log units
CC(C)c1cc(C(C)C)cc(C(C)C)c1	-0.18 log units
CCOC(=O)C12CC3CC(CC(C3)C1)C2	1.06 log units
CC(=O)c1cccc(C(F)(F)F)c1	0.72 log units
Cc1c(C)c(C)c(C)c(C)c1C	0.02 log units

Structure (SMILES)	pK_BHX (log10 Kf of the 1:1 H-bond complex with 4-fluorophenol, by FTIR)
CN(C)Cc1ccccc1	1.59 log units
CCNC	2.25 log units
COc1ccc(OC)cc1	0.12 log units
C#Cc1ccccc1	-0.44 log units and -0.6 log units
CN1C2CCCC1CC2	2.39 log units
CC(=O)N1CCOCC1	2.16 log units
O=CN1CCCC1	2.31 log units
CC12CCC(CC1=N[N+](=O)[O-])C2(C)C (stereo not shown)	0.34 log units
COc1cccc(N=C(c2ccccc2)N(C)c2ccccc2)c1	1.41 log units
CSC1CCCCC1	0.24 log units
COc1ccc(C(=O)c2ccc(OC)cc2)cc1	1.49 log units
CCOC(=O)c1ccc(C)cc1	1.05 log units
C1COCO1	0.45 log units
CN(C)c1ccc(C#N)cc1	1.23 log units
C1C2CC3CC1CC(C2)C31OOC12C1CC3CC(C1)CC2C3 (stereo not shown)	0.63 log units
COc1cc[n+]([O-])cc1	3.7 log units
CCC(=O)NC	2.24 log units
N#CC12CC3CC(CC(C3)C1)C2	1.0 log units
COC(C)=O	1.0 log units
COc1ccccc1C(=O)N(C)C	2.48 log units
c1ccc(C23CC4CC(CC(C4)C2)C3)cc1	-0.28 log units
CC(=O)n1ccnc1	1.86 log units
CCN(C#N)CC	1.63 log units

Structure (SMILES)	pK_BHX (log10 Kf of the 1:1 H-bond complex with 4-fluorophenol, by FTIR)
C1CN2CCN1CC2	2.33 log units
c1cnc2c(c1)ccc1cccnc12	3.1 log units
COC(OC)(OC)OC	0.26 log units
CCCCN	2.19 log units
Cc1ccc[n+]([O-])c1	2.92 log units
CNCc1ccccc1	1.82 log units
Cc1ccccn1	2.03 log units
CCOC(=O)c1ccc(N(C)C)cc1	1.45 log units
c1ccc2c(c1)cnc1ccccc12	1.87 log units
Cc1cccnc1	2.0 log units
COc1ccc(C(=S)N(C)C)cc1	1.16 log units
CC(=Nc1ccccc1)N(C)c1cccc(Cl)c1	1.44 log units
c1ccc(Nc2ccccc2)cc1	-0.3 log units
CC(=O)c1ccc(C23CC4CC(CC(C4)C2)C3)cc1	1.3 log units
CC(C)N	2.2 log units
CC(C)N=CN(C)C	2.6 log units
c1ccc2c(c1)ccc1ccccc12	-0.53 log units
OCc1ccccc1	0.86 log units
Brc1cncnc1	0.59 log units
CNC(C)=O	2.3 log units
COc1ccccc1C	-0.37 log units
CCCCCCCCO	1.04 log units
c1cc(N2CCCC2)ccn1	2.93 log units

Structure (SMILES)	pK_BHX (log10 Kf of the 1:1 H-bond complex with 4-fluorophenol, by FTIR)
CN(C)C(=S)c1ccc(N)cc1	1.33 log units
c1ccc(C2CCCN2)cc1 (stereo not shown)	1.93 log units
CC(=Nc1ccc(Br)cc1)N(C)c1ccccc1	1.36 log units
N#Cc1cccc(Br)c1	0.65 log units
CCCCS(=O)(=O)CCCC	1.22 log units
N#Cc1cc(Cl)cc(Cl)c1	0.52 log units
COc1ccncc1	2.13 log units
O=S(Cc1ccccc1)Cc1ccccc1	2.43 log units
CN(C)C(=O)c1ccc(Br)cc1	2.07 log units
CCSSCC	-0.4 log units
C=CCN=CN(C)C	2.48 log units
CC(=Nc1ccc(C)cc1)Nc1ccc(C)cc1	2.01 log units
C=CCN(CC=C)CC=C	1.34 log units
ClC12CC3CC(CC(C3)C1)C2	-0.18 log units
CC(C)(C)SC(C)(C)C	0.4 log units
CC(C)I	-0.37 log units
Cc1cccc(N(C)C)c1	0.41 log units
CC(=O)c1ccc(C(F)(F)F)cc1	0.78 log units
S=C1CCCCCN1	1.6 log units
FC1CCCCC1	0.09 log units
CCN(CC)C(=O)C(C)(C)C	2.13 log units
Clc1cccnc1	1.31 log units
CNC(C)(C)C	2.21 log units
